This assay concerns the target T1, EPHA5 (Homo sapiens, UniProt P54756).
T1 construct: purchased Thermo Fisher Scientific (Life Technologies) SelectScreen
Nature of the assay: SelectScreen Z'LYTE. The assay is classed as biochemical. In a few lines: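 SelectScreen broad panel; activity (Z'LYTE, Adapta) plus binding formats. ATP: Km app for CSF1R Z'LYTE; 10 for CAMK1 Adapta. Readout = % per kinase.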

Molecules are shown by their SMILES.

Data on 1 compound can be found in publication PMC6934184, “Selective DNA-PKcs inhibition extends the therapeutic index of localized radiotherapy and chemotherapy” (The Journal of Clinical Investigation, 2019).

T1 sequence (P54756 25-1037): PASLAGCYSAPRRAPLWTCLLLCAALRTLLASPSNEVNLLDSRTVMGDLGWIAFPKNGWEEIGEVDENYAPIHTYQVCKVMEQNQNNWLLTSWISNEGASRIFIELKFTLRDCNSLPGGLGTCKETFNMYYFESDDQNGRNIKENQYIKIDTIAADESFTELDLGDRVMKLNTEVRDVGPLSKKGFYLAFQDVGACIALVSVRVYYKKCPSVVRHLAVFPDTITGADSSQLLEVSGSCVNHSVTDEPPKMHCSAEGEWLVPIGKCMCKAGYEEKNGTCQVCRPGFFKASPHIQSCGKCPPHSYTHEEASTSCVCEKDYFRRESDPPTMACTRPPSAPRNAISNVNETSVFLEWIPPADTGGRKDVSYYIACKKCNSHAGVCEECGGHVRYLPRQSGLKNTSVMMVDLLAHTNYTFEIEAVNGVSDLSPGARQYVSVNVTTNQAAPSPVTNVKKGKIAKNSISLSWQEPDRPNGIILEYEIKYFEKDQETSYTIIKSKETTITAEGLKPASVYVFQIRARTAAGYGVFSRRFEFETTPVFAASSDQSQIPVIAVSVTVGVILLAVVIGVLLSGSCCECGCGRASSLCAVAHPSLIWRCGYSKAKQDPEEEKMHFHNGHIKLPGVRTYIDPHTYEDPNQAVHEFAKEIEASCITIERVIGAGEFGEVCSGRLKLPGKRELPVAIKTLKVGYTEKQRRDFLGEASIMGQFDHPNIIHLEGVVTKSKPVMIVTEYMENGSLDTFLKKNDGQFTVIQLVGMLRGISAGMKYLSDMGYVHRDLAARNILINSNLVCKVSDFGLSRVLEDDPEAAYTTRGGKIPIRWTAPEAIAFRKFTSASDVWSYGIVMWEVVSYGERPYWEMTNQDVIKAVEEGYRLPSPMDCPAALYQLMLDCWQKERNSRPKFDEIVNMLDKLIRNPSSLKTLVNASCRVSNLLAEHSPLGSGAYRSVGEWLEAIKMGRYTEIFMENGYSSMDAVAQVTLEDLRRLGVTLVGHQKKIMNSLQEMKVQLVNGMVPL

Usually inhibition stands for how much of the control response was suppressed. With `CN(C(=O)CN1CCOCC1)c1ccc2sc3c(-c4cccc5c(=O)cc(N6CC7CCC(C6)O7)oc45)cccc3c2c1` [NU5455], the inhibition at 1 µM was found to be 5.1%.
